According to ChEMBL document CHEMBL3784971, “Synthesis, characterization, antimicrobial and biofilm inhibitory studies of new esterquats” (Bioorg Med Chem Lett, 2016):
Values after ≈ are worked out from the molar mass of the structure shown. Values belong to the compound of their own block, whether it stands above or below them.

Key:
Assay type in all cases: functional
[1] = test system: Candida albicans; assay: Antimicrobial activity against Candida albicans MTCC 3017 assessed as growth inhibition after 24 hrs by agar well diffusion method; settings: MTCC 3017, 24 h
[2] = test system: Candida albicans; assay: Antimicrobial activity against Candida albicans MTCC 183 assessed as growth inhibition after 24 hrs by agar well diffusion method; settings: MTCC 183, 24 h
[3] = test system: Candida albicans; assay: Antimicrobial activity against Candida albicans MTCC 227 assessed as growth inhibition after 24 hrs by agar well diffusion method; settings: MTCC 227, 24 h
[4] = test system: Candida albicans; assay: Antimicrobial activity against Candida albicans MTCC 854 assessed as growth inhibition after 24 hrs by agar well diffusion method; settings: MTCC 854, 24 h
[5] = test system: Candida albicans; assay: Antimicrobial activity against Candida albicans MTCC 1637 assessed as growth inhibition after 24 hrs by agar well diffusion method; settings: MTCC 1637, 24 h
[6] = test system: Candida albicans; assay: Antimicrobial activity against Candida albicans MTCC 3018 assessed as growth inhibition after 24 hrs by agar well diffusion method; settings: MTCC 3018, 24 h
[7] = test system: Candida albicans; assay: Antimicrobial activity against Candida albicans MTCC 3958 assessed as growth inhibition after 24 hrs by agar well diffusion method; settings: MTCC 3958, 24 h
[8] = test system: Candida albicans; assay: Antimicrobial activity against Candida albicans MTCC 4748 assessed as growth inhibition after 24 hrs by agar well diffusion method; settings: MTCC 4748, 24 h
[9] = test system: Candida albicans; assay: Antimicrobial activity against Candida albicans MTCC 7315 assessed as growth inhibition after 24 hrs by agar well diffusion method; settings: MTCC 7315, 24 h
[10] = test system: Candida parapsilosis; assay: Antimicrobial activity against Candida parapsilosis MTCC 1744 assessed as growth inhibition after 24 hrs by agar well diffusion method; settings: Lodderomyces parapsilosis, MTCC 1744, 24 h
[11] = test system: [Candida] aaseri; assay: Antimicrobial activity against Candida aaseri MTCC 1962 assessed as growth inhibition after 24 hrs by agar well diffusion method; settings: Yamadazyma aaseri, MTCC 1962, 24 h
[12] = test system: Nakaseomyces glabratus; assay: Antimicrobial activity against Candida glabrata MTCC 3019 assessed as growth inhibition after 24 hrs by agar well diffusion method; settings: MTCC 3019, 24 h
[13] = test system: Pichia kudriavzevii; assay: Antimicrobial activity against Candida krusei MTCC 3020 assessed as growth inhibition after 24 hrs by agar well diffusion method; settings: MTCC 3020, 24 h
[14] = test system: Pichia sporocuriosa; assay: Antimicrobial activity against Issatchenkia hanoiensis MTCC 4755 assessed as growth inhibition after 24 hrs by agar well diffusion method; settings: MTCC 4755, 24 h
[15] = test system: Candida albicans; assay: Fungicidal activity against Candida albicans MTCC 3017 after 24 hrs by serial dilution method; settings: MTCC 3017, 24 h
[16] = test system: Candida albicans; assay: Fungicidal activity against Candida albicans MTCC 183 after 24 hrs by serial dilution method; settings: MTCC 183, 24 h
[17] = test system: Candida albicans; assay: Fungicidal activity against Candida albicans MTCC 227 after 24 hrs by serial dilution method; settings: MTCC 227, 24 h
[18] = test system: Candida albicans; assay: Fungicidal activity against Candida albicans MTCC 854 after 24 hrs by serial dilution method; settings: MTCC 854, 24 h
[19] = test system: Candida albicans; assay: Fungicidal activity against Candida albicans MTCC 1637 after 24 hrs by serial dilution method; settings: MTCC 1637, 24 h
[20] = test system: Candida albicans; assay: Fungicidal activity against Candida albicans MTCC 3018 after 24 hrs by serial dilution method; settings: MTCC 3018, 24 h
[21] = test system: Candida albicans; assay: Fungicidal activity against Candida albicans MTCC 3958 after 24 hrs by serial dilution method; settings: MTCC 3958, 24 h
[22] = test system: Candida albicans; assay: Fungicidal activity against Candida albicans MTCC 4748 after 24 hrs by serial dilution method; settings: MTCC 4748, 24 h
[23] = test system: Candida albicans; assay: Fungicidal activity against Candida albicans MTCC 7315 after 24 hrs by serial dilution method; settings: MTCC 7315, 24 h
[24] = test system: Candida parapsilosis; assay: Fungicidal activity against Candida parapsilosis MTCC 1744 after 24 hrs by serial dilution method; settings: Lodderomyces parapsilosis, MTCC 1744, 24 h
[25] = test system: [Candida] aaseri; assay: Fungicidal activity against Candida aaseri MTCC 1962 after 24 hrs by serial dilution method; settings: Yamadazyma aaseri, MTCC 1962, 24 h
[26] = test system: Nakaseomyces glabratus; assay: Fungicidal activity against Candida glabrata MTCC 3019 after 24 hrs by serial dilution method; settings: MTCC 3019, 24 h
[27] = test system: Pichia kudriavzevii; assay: Fungicidal activity against Candida krusei MTCC 3020 after 24 hrs by serial dilution method; settings: MTCC 3020, 24 h
[28] = test system: Pichia sporocuriosa; assay: Fungicidal activity against Issatchenkia hanoiensis MTCC 4755 after 24 hrs by serial dilution method; settings: MTCC 4755, 24 h
[29] = test system: Staphylococcus aureus; assay: Antimicrobial activity against Staphylococcus aureus MTCC 96 assessed as growth inhibition after 24 hrs by agar well diffusion method; settings: MTCC 96, 24 h
[30] = test system: Bacillus subtilis; assay: Antimicrobial activity against Bacillus subtilis MTCC 121 assessed as growth inhibition after 24 hrs by agar well diffusion method; settings: MTCC 121, 24 h
[31] = test system: Staphylococcus aureus; assay: Antimicrobial activity against Staphylococcus aureus MLS16 MTCC 2940 assessed as growth inhibition after 24 hrs by agar well diffusion method; settings: MLS16 MTCC 2940, 24 h
[32] = test system: Micrococcus luteus; assay: Antimicrobial activity against Micrococcus luteus MTCC 2470 assessed as growth inhibition after 24 hrs by agar well diffusion method; settings: MTCC 2470, 24 h
[33] = test system: Raoultella planticola; assay: Antimicrobial activity against Klebsiella planticola MTCC 530 assessed as growth inhibition after 24 hrs by agar well diffusion method; settings: MTCC 530, 24 h
[34] = test system: Escherichia coli; assay: Antimicrobial activity against Escherichia coli MTCC 739 assessed as growth inhibition after 24 hrs by agar well diffusion method; settings: MTCC 739, 24 h
[35] = test system: Pseudomonas aeruginosa; assay: Antimicrobial activity against Pseudomonas aeruginosa MTCC 2453 assessed as growth inhibition after 24 hrs by agar well diffusion method; settings: MTCC 2453, 24 h
[36] = test system: Staphylococcus aureus; assay: Bactericidal activity against Staphylococcus aureus MTCC 96 after 24 hrs by serial dilution method; settings: MTCC 96, 24 h
[37] = test system: Bacillus subtilis; assay: Bactericidal activity against Bacillus subtilis MTCC 121 after 24 hrs by serial dilution method; settings: MTCC 121, 24 h
[38] = test system: Staphylococcus aureus; assay: Bactericidal activity against Staphylococcus aureus MLS16 MTCC 2940 after 24 hrs by serial dilution method; settings: MLS16 MTCC 2940, 24 h
[39] = test system: Micrococcus luteus; assay: Bactericidal activity against Micrococcus luteus MTCC 2470 after 24 hrs by serial dilution method; settings: MTCC 2470, 24 h
[40] = test system: Raoultella planticola; assay: Bactericidal activity against Klebsiella planticola MTCC 530 after 24 hrs by serial dilution method; settings: MTCC 530, 24 h
[41] = test system: Escherichia coli; assay: Bactericidal activity against Escherichia coli MTCC 739 after 24 hrs by serial dilution method; settings: MTCC 739, 24 h

MIC [1]: 7.8 µg/mL (≈ 18.7 µM)
MIC [2]: 7.8 µg/mL (≈ 18.7 µM)
MIC [3]: 7.8 µg/mL (≈ 18.7 µM)
MIC [4]: 7.8 µg/mL (≈ 18.7 µM)
MIC [5]: 7.8 µg/mL (≈ 18.7 µM)
MIC [6]: 7.8 µg/mL (≈ 18.7 µM)
MIC [7]: 7.8 µg/mL (≈ 18.7 µM)
MIC [8]: 7.8 µg/mL (≈ 18.7 µM)
MIC [9]: 7.8 µg/mL (≈ 18.7 µM)
MIC [10]: 7.8 µg/mL (≈ 18.7 µM)
MIC [11]: 7.8 µg/mL (≈ 18.7 µM)
MIC [12]: 7.8 µg/mL (≈ 18.7 µM)
MIC [13]: 7.8 µg/mL (≈ 18.7 µM)
MIC [14]: 7.8 µg/mL (≈ 18.7 µM)
SMILES: Clc1ccc(COC(Cn2ccnc2)c2ccc(Cl)cc2Cl)c(Cl)c1 (stereo unspecified) [MICONAZOLE]
MFC [15]: 7.8 µg/mL (≈ 18.7 µM)
MFC [16]: 7.8 µg/mL (≈ 18.7 µM)
MFC [17]: 15.6 µg/mL (≈ 37.5 µM)
MFC [18]: 15.6 µg/mL (≈ 37.5 µM)
MFC [19]: 15.6 µg/mL (≈ 37.5 µM)
MFC [20]: 7.8 µg/mL (≈ 18.7 µM)
MFC [21]: 15.6 µg/mL (≈ 37.5 µM)
MFC [22]: 7.8 µg/mL (≈ 18.7 µM)
MFC [23]: 7.8 µg/mL (≈ 18.7 µM)
MFC [24]: 7.8 µg/mL (≈ 18.7 µM)
MFC [25]: 7.8 µg/mL (≈ 18.7 µM)
MFC [26]: 15.6 µg/mL (≈ 37.5 µM)
MFC [27]: 7.8 µg/mL (≈ 18.7 µM)
MFC [28]: 7.8 µg/mL (≈ 18.7 µM)

MIC [29]: > 125 µg/mL
MIC [30]: > 125 µg/mL
MIC [31]: > 125 µg/mL
MIC [32]: > 125 µg/mL
MIC [34]: > 125 µg/mL
MIC [35]: > 125 µg/mL
MIC [1]: > 125 µg/mL
SMILES: CCCCCCCCCCCCCCCCCCN(CCCCCCCCCCC(=O)OC)CCCCCCCCCCC(=O)OC
MIC [33]: > 125 µg/mL
MBC [36]: > 125 µg/mL
MBC [37]: > 125 µg/mL
MBC [38]: > 125 µg/mL
MBC [39]: > 125 µg/mL
MBC [40]: > 125 µg/mL
MBC [41]: > 125 µg/mL

MIC [29]: > 125 µg/mL
MIC [30]: > 125 µg/mL
MIC [31]: > 125 µg/mL
MIC [32]: > 125 µg/mL
MIC [34]: > 125 µg/mL
MIC [35]: > 125 µg/mL
MIC [1]: > 125 µg/mL
SMILES: CCCCCCCCCCCCCCCCCCNCCCCCCCCCCC(=O)OC
MIC [33]: > 125 µg/mL
MBC [36]: > 125 µg/mL
MBC [37]: > 125 µg/mL
MBC [38]: > 125 µg/mL
MBC [39]: > 125 µg/mL
MBC [40]: > 125 µg/mL
MBC [41]: > 125 µg/mL
